Measured values reported in article PMC9952338, “Chemical Constituents from Streblus taxoides Wood with Their Antibacterial and Antityrosinase Activities Plus in Silico Study” (Antibiotics, 2023).
≈ marks a conversion by molar mass, not a printed value. Entries after “also recorded” stand apart in the source; their conditions may differ. Like-named read-outs stand apart in the source and are kept apart here.

Legend:
[1] = tested on: Cutibacterium acnes (DMST 14916); assay: MIC and MBC by modified broth microdilution; assay type: cell-based; conditions: C. acnes
Experimental: (§1) Microorganisms that cause skin infection, such as Staphylococcus aureus (ATTC 25923), Staphylococcus epidermidis (TISTR 517), Cutibacterium acnes (DMST 14916) and methicillin-resistant Staphylococcus aureus (DMST20654), were selected for this study. The isolated compounds were determined for minimum inhibitory concentration (MIC) in a 96-well plate by modified broth microdilution method and minimum bactericidal concentration (MBC). Oxacillin was used as positive controls for S. aureus, S. epidermidis and C. acnes, while vancomycin was used for MRSA.

[2] = tested on: Staphylococcus epidermidis (TISTR 517); assay: MIC and MBC by modified broth microdilution; assay type: cell-based; conditions: S. epidermidis; for MBC / MIC: Staphylococcus epidermidis, TISTR517
Experimental: as §1

[3] = tested on: Staphylococcus aureus (ATTC 25923); assay: MIC and MBC by modified broth microdilution; assay type: cell-based; conditions: S. aureus; for MBC / MIC: Staphylococcus aureus
Experimental: as §1

[4] = tested on: methicillin-resistant Staphylococcus aureus (DMST20654); assay: MIC and MBC by modified broth microdilution; assay type: cell-based; conditions: MRSA; for MBC / MIC: Staphylococcus aureus
Experimental: as §1

B16-F1 melanoma cells = assay: Melanin content; assay type: cell-based, murine; conditions: 50 µg/mL
Experimental: (§2) The murine B16-F1 melanoma cells (CLS-400122, CLS Cell Lines Service GmbH, Germany) were cultured in Dulbecco’s modified Eagle’s medium, which was supplemented with 10% fetal bovine serum in a humidified incubator at 37 C with 5% CO2. When cells reached 70–80% confluence cell viability, cellular tyrosinase activity and melanin content were measured. The B16-F1 cells were seeded at a density of 3 × 10^5 cells/well on 12-well plates and cultured for 12 h. Cells were treated with test samples and control (0.5% DMSO). After 48 h of incubation, cells were lysed with RIPA and centrifuged at 14,000 rpm for 20 min (4 °C) to separate the cell pellet and supernatant. The supernatant was collected and the protein content was determined by the Bradford method using bovine serum albumin as standard. The supernatant was incubated and 2 mg/mL L-Dopa was added to a 96-well plate at 25 °C for 1 h. After that, optical densities were measured at 492 nm. Then, tyrosinase inhibition was calculated, while the cell pellet was dissolved with 1 M NaOH and incubated at 55 °C for 1 h. Melanin concentration was calculated by comparing the absorbance at 475 nm using a standard curve of synthetic melanin.

tyrosinase enzyme = assay: Enzymatic antityrosinase activity, Dopachrom method with L-DOPA; assay type: biochemical, mushroom; conditions: for IC50 on tyrosinase inhibitory activity: L-DOPA substrate, pH 6.8, 25 °C; for IC50 Values: Experiment of Table 4, reference for the correlation, in µg/mL
Experimental: The tyrosinase activity was measured by the Dopachrom method using L-DOPA as a substrate. Briefly, 140 μL phosphate buffer (pH 6.8), 20 μL sample solution, and 20 μL tyrosinase solution (203.3 unit/mL) were mixed at 25 °C for 10 min, after which 20 μL of 0.85 mM L-Dopa was added. The optical density (OD) was measured at 492 nm. After incubation at 25 °C for 20 min, the optical density was measured again.

[5] = tested on: MITF, tyrosinase, TRP1 and TRP2 in B16-F1 cells; assay: Western blot of melanogenic protein expression; assay type: cell-based, murine; conditions: 25 and 50 µg/mL
Source text: The protein content of the supernatant was quantified by the Bradford method using bovine serum albumin as standard. Equal amounts of protein were separated by 40% acrylamide/Bissolution (InvitrogenThermoFisher Scientific, Waltham, MA, USA) and transferred onto nitrocellulose membranes (BIO-RAD Laboratories, Feldkirchen, Germany). The membranes were probed with antibodies against microphthalmia-associated transcription factor; MITF (ThermoFisher Scientific #MA5-16214, Waltham, MA, USA), tyrosinase (ThermoFisher Scientific #35-6000, Waltham, MA, USA), tyrosinase-related protein 1; TRP1 (ThermoFisher Scientific #OSR00085W, Waltham, MA, USA) and tyrosinase-related protein 2; TRP2 (ThermoFisher Scientific #PA5-36485, Waltham, MA, USA). The proteins were detected using an enhanced chemiluminescence kit (BIO-RAD Laboratories, Hercules, CA, USA). Quantitative analysis was performed using a digital imager (UPV UVP, VisionWork^T LS, Image Acquisition & Analysis Software). The method applied was modified from Western Blot analysis for UGT1A family by the co-author, Asst. Prof. Dr. Wandee Udomuksorn, Pharmacology Program, Division of Health and Applied Science, Faculty of Science, Prince of Songkla University, Thailand., Department of Clinical Pharmacology, Flinders Medical Center.

[6] = tested on: tyrosinase in B16-F1 melanoma cells; assay: Intracellular antityrosinase activity; assay type: cell-based, murine; conditions: 50 µg/mL, 48 h
Experimental: as §2

tyrosinase = tested on: tyrosinase; design: method as in PMID 27598113; conditions: cited from earlier work
[7] = listed as 3, 4, 3′, 5′-tetrahydroxybibenzyl

Compound | MBC [1] [µg/mL] | MIC [1] [µg/mL] | MBC [2] [µg/mL] | MIC [2] [µg/mL] | MBC [3] [µg/mL] | MIC [3] [µg/mL] | MBC ([4]; read-out: MBC) [µg/mL] | MIC ([4]; read-out: MIC) [µg/mL] | IC50 on tyrosinase inhibitory activity (tyrosinase enzyme) [µg/mL] | Inhibitory effect (in words) [2] | Inhibitory effect (in words) [3] | Inhibitory effect (in words) [4] | Melanin content (B16-F1 melanoma cells) | Intracellular antityrosinase activity [6] | IC50 Values (tyrosinase enzyme) | Melanogenic protein expression [5] | other results
Oc1cc(O)cc(CCc2ccc(O)c(O)c2)c1 [Compound 4, 3,4, 3′, 5′-tetrahydroxybibenzyl] | > 256 | > 256 | > 256 | 128 (≈ 520 µM) | 256 (≈ 1040 µM) | 128 (≈ 520 µM) | 256 (≈ 1040 µM) | 64 (≈ 260 µM) | 35.65 ± 0.98 (≈ 145 µM) |  |  |  |  |  |  |  | Melanin content (B16-F1 melanoma cells; [7]): increased the melanin content; also recorded: increase melanin content; Melanogenic protein expression [5, 7]: increasing microphthalmia-associated transcription factor (MITF) and tyrosinase (TYR); also recorded: upregulating the melanogenic protein expression
CC(C)=CCc1c(O)cc(-c2cc3ccc(O)cc3o2)cc1O [Compound 3, moracin C] | > 256 | 128 (≈ 412 µM) | > 256 | 128 (≈ 412 µM) | 64 (≈ 206 µM) | 32 (≈ 103 µM) | 64 (≈ 206 µM) | 32 (≈ 103 µM) | 128.67 ± 1.21 (≈ 415 µM) | stronger inhibitory effect | stronger inhibitory effect | stronger inhibitory effect | could decrease the melanin content | exhibited antityrosinase activity | 128.67 | decreasing microphthalmia-associated transcription factor (MITF), tyrosinase (TYR), tyrosinase-related protein 1 (TRP1) and tyrosinase-related protein 2 (TRP2); also recorded: downregulated the melanogenic protein expression | 
Cc1onc(-c2ccccc2)c1C(=O)N[C@@H]1C(=O)N2[C@@H]1SC(C)(C)[C@@H]2C(=O)O [Oxa, Oxacillin, reference compound] | 0.5 (≈ 1.25 µM) | 0.5 (≈ 1.25 µM) | 0.5 (≈ 1.25 µM) | 0.5 (≈ 1.25 µM) | 0.125 (≈ 0.311 µM) | 0.125 (≈ 0.311 µM) |  |  |  |  |  |  |  |  |  |  | 
Oc1cc(O)cc(-c2cc3ccc(O)cc3o2)c1 [Compound 2, moracin M] | > 256 | > 256 | > 256 | 64 (≈ 264 µM) | > 256 | 256 (≈ 1060 µM) | > 256 | 64 (≈ 264 µM) | 47.34 ± 0.78 (≈ 195 µM) | weak inhibitory effect | weak inhibitory effect | weak inhibitory effect | could decrease the melanin content | exhibited antityrosinase activity | 47.34 | decreasing microphthalmia-associated transcription factor (MITF), tyrosinase (TYR), tyrosinase-related protein 1 (TRP1) and tyrosinase-related protein 2 (TRP2); also recorded: downregulated the melanogenic protein expression | 
Oc1cc(O)cc(/C=C/c2ccc(O)c(O)c2)c1 [Compound 5, piceatannol] | > 256 | > 256 | 128 (≈ 524 µM) | 64 (≈ 262 µM) | > 256 | > 256 | > 256 | 128 (≈ 524 µM) | 149.73 ± 0.86 (≈ 613 µM) |  |  |  | increased the melanin content; also recorded: increase melanin content |  | 149.73 | increasing microphthalmia-associated transcription factor (MITF) and tyrosinase (TYR); also recorded: upregulating the melanogenic protein expression | 
CC(=CCc1c(O)cc(-c2cc3ccc(O)cc3o2)cc1O)CO [Compound 1, ω-Hydroxymoracin C] | > 256 | 128 (≈ 392 µM) | 32 (≈ 98.1 µM) | 16 (≈ 49 µM) | 32 (≈ 98.1 µM) | 16 (≈ 49 µM) | > 256 | 16 (≈ 49 µM) | 109.64 ± 0.89 (≈ 336 µM) | stronger inhibitory effect | stronger inhibitory effect | stronger inhibitory effect | could decrease the melanin content | exhibited antityrosinase activity | 109.64 |  | Melanogenic protein expression ([5]; listed as ω-Hydroxymoracin C): downregulated the melanogenic protein expression; Melanogenic protein expression ([5]; listed as ω-hydroxymoracin C): decreasing microphthalmia-associated transcription factor (MITF), tyrosinase (TYR), tyrosinase-related protein 1 (TRP1) and tyrosinase-related protein 2 (TRP2)
CN[C@H](CC(C)C)C(=O)N[C@H]1C(=O)N[C@@H](CC(N)=O)C(=O)N[C@H]2C(=O)N[C@H]3C(=O)N[C@H](C(=O)N[C@H](C(=O)O)c4cc(O)cc(O)c4-c4cc3ccc4O)[C@H](O)c3ccc(c(Cl)c3)Oc3cc2cc(c3O[C@@H]2O[C@H](CO)[C@@H](O)[C@H](O)[C@H]2O[C@H]2C[C@](C)(N)[C@H](O)[C@H](C)O2)Oc2ccc(cc2Cl)[C@H]1O [Van, Vancomycin, reference compound] |  |  |  |  |  |  |  |  |  |  |  |  |  |  |  |  | MBC [4]: 0.5 µg/mL (≈ 0.345 µM); MIC [4]: 0.125 µg/mL (≈ 0.0863 µM)
CC1(C)C=Cc2c(O)cc(-c3cc4ccc(O)cc4o3)cc2O1 [moracin D] |  |  |  |  |  |  |  |  |  |  |  |  |  |  |  |  | Antityrosinase activity (in words) (tyrosinase): did not display antityrosinase activity
